In one data set the test system is AIDS virus (HIV-1, IIIb). Type of data set: cell-based. As to conditions: HIV-1 IIIb in H9 cells, p24 in culture supernatant by ELISA on the 6th day. The procedure: (§1) Samples of various concentrations (25 μl) are distributed into a 24-well microplate, immediately added with human T cells (H9 cell line, 1.2×10^5/ml) (1 ml), covered, and incubated at 37° C. for 1 h. Then, AIDS virus (HIV-1, IIIb, 100 TCID 50) (25 μl) is added to each well and thoroughly mixed, covered again, and incubated under the CO2 atmosphere at 37° C. for 3 days. On the fourth day, aliquots (200 μl) of the culture medium from each well are transferred into a fresh microplate. The growth medium (500 μl) is added to each well, and further incubated for 2 days.
(§2) On the 6th day, aliquots (90 μl) of the culture supernatant are withdrawn, and assayed the amount of p24, a constituent of HIV-1, by ELISA method using the anti-p24 antibody to assess the growth of said virus. Also, using the remaining cell culture suspension (100 μl), viable cells are counted by the MTT method. Experimental values are expressed as the ratios (%) to the negative control value (measured using the solvent to dissolve test compounds as the sample) to represent the anti-HIV activity and cytotoxicity. Then, for the unified representation of the anti-HIV activity and cytotoxicity, the concentrations of test compounds at their 50% values are obtained from the activity-concentration curves and the cytotoxicity-concentration, and represented as IC50 and CC50, respectively.

The test system of data set [1] is human T cells (H9 cell line). The experiment in a line: Cytotoxicity, viable cells counted by the MTT method. Format: cell-based. As to the method: as §1, §2
A general note: Tetrazolium dyes change colour on reduction, which living cells bring about.

For data set [2], the system named is Herpes simplex II virus (HSVII). The data set can be described thus: Plaque reduction assay, Herpes simplex II virus. Type of data set: cell-based. As to conditions: HEP2 cells. The procedure:
(§3) Antiviral activity against human Parainfluenza virus, Respiratory syncytial virus (RSV) and Herpes simplex II virus (HSVII) was determined by the plaque reduction assay, while that against Feline immunodeficiency virus (FIV) and Feline leukemia virus (FeLV) by the reverse transcriptase assay and ELISA, respectively.
(§4) Each virus was obtained from ATCC. As host cells, VERO cells were used for Parainfluenza virus, and HEP2 cells for other viruses.
(§5) To fibroblasts growing in a T150 flask were added virus-infected cells, and the cells were incubated until they reached 60-80% infection. Cells were trypsinized, recovered and used as the virus stock. As the cell culture medium was used E-MEM containing 2-5% FBS, 100 U/ml Penicillin, 2.5 μg/ml Aniphotericin and 10 μg/ml Gentamycin.
(§6) Compound related to Example 29 was appropriately diluted to the concentrations of 500, 100, 50, 10 and 5 μg/ml with the culture medium or methyl cellulose. As the reference drug for HSV II was used Acyclovir. […]
(§7) Cells were cultured at 36-38° C. under the 5-7% CO2 atmosphere, and examined for the appearance of plaques under microscope. […] Number of plaques counted in the sample well was compared with that in the virus control well, and the decrease in the number of plaques was used to express the antiviral activity.
For orientation: In a plaque reduction assay, fewer plaques than in the control indicate reduced infectivity or spread.

The test system of data set [3] is Respiratory syncytial virus (RSV). The data set can be described thus: Plaque reduction assay, Respiratory syncytial virus. To be noted: HEP2 cells. Type of data set: cell-based. As to the method:
as §3, §4, §5, §6, §7

The test system of data set [4] is human Parainfluenza virus. The experiment in a line: Plaque reduction assay, Parainfluenza virus. Type of data set: cell-based. As to conditions: VERO cells. The procedure:
as §3, §4, §5, §6, §7

The subject of data set [5] is Feline immunodeficiency virus (FIV). The data set can be described thus: Reverse transcriptase assay, Feline immunodeficiency virus. Type of data set: cell-based. To be noted: CRFK cells. The procedure: as §3
(§8) Each virus was obtained from ATCC. FIV was cultured with CRFK cells in Eagle's balanced salt medium containing 10% FBS, and the supernatant was used as the virus stock. As FeLV was used ATCC VR-717.
(§9) Compound related to Example 29 was diluted with the medium to similar concentrations described above.
(§10) For each single strain of virus, the assay was performed in the following combinations of conditions.
(§11) After CRFL cells were cultured in monolayer in 96-well microplates, the supernatant was discarded. […]
(§12) Using supernatants as the sample from the cell control well, the virus control well and the test well, the reverse transcriptase of FIV or FeLV antigen contained therein were quantitated using assay kits from Amersham LIFESCIENCE and Synbiotics, respectively. Anti-viral activity was expressed as that ratio (%) of the value of the test well to that of the virus control well after both values were subtracted with the value of the cell control well, respectively.

Data set [6] concerns Feline leukemia virus (FeLV). The experiment in a line: FeLV antigen ELISA, Feline leukemia virus. Type of data set: cell-based. As to the method:
as §3, §8, §9, §10, §11, §12
In general terms: In an ELISA, binding on a coated surface is turned into a signal by an enzyme label.

The test system of a further data set is human plasma. The data set can be described thus: Anti-coagulation activity in human plasma. As to conditions: calcium chloride, 37° C. for 30 min, judged with the naked eye.
A further data set has as its system mice. The experiment in a line: Toxicity study, intravenous administration to mice. Format: in vivo. To be noted: intravenously administered. The procedure:
Compounds were intravenously administered to mice, and LD50s (mg/kg) were determined.

For `CCCCCCCCCCCCCCCCCCCCCCOCC(C)(COCCCCCCCCCCCCCCCCCCCCCC)COC1(C(=O)[O-])CC(OS(=O)(=O)[O-])C(NC(C)=O)C(C(OS(=O)(=O)[O-])C(COS(=O)(=O)[O-])OS(=O)(=O)[O-])O1.[Na+].[Na+].[Na+].[Na+].[Na+]` [Example 29, Sodium[2,2-bis(docosyloxymethyl)propyl 5-acetamido-3,5-dideoxy-4,7,8,9-tetra-O-(sodiumoxysulfonyl)-D-glycero-α-D-galacto-2-nonulopyranosid]onate], the IC50 (as a rule, the concentration needed to halve the response being measured) in the data set on AIDS virus (HIV-1, IIIb) came out at 1.6 µM; in [2], 45.2 µM; in data set [3], 5.1 µM; in data set [4] it was 37.6 µM; in data set [5] it was 4.5 µM; in data set [6], 58.3 µM. For the same compound, in [1], the CC50 (commonly the concentration giving 50% cytotoxicity) is above 20 µM. In the data set with human plasma, the “Minimum concentration exhibiting anticoagulant action” value amounted to 900 µM. For the same compound, the LD50 (in general, the dose expected to kill half of the subjects tested) with mice is 2000 mg/kg.
